Laboratory results reported in patent US11306074B2, “Chemical and method for analyzing DNA sequence by visualizing single-molecule DNA and use thereof” (SOGANG UNIVERSITY RESEARCH FOUNDATION, priority 2018, dated 2022).

Legend:
λ DNA = settings: for staining / visualization of λ DNA molecules: λ DNA (48.5 kbp) tethered, 1×TE flow 100 μL/minute, 70 μM dye solution mixed 1:1, 20-fold diluted, FIGS. 2a-2c
Procedure: An inverted microscope (Olympus IX70, Tokyo, Japan) with 60× Olympus UPlanSApo oil immersion objectives illuminated with an LED light source (SOLA SM II light engine, Lumencor, Beaverton, Oreg., USA) was used. The light was passed through corresponding filter sets (Semrock, Rochester, N.Y., USA) to set the excitation and emission wavelengths. A maximum light intensity of 140 mW/cm^2 was measured. Fluorescence microscopic images were taken with an electron-multiplying charge-coupled device digital camera (Evolve EMCCD, Roper Scientific, Tucson, Ariz., USA) and stored in a 16-bit TIFF format using the software Micro-manager. For image processing and analysis, ImageJ software with Java plug-ins and python programs developed by the present inventors were utilized.
First, λ DNA (NCBI: NC_001416.1) was diluted to a concentration of 5 ng/μL (0.16 nM; base pair 7.76 μM) in 1×TE (10 mM Tris, 1 mM EDTA, pH 8.0) and mixed at a volume ratio of 1:1 with 70 μM of the Preparation Example solution. Next, the mixture was incubated at room temperature for 15 min and 20-fold diluted with 4% […] (β-ME) in 1×TE.
Separately, a flow chamber (5×10×0.1 mm (L×W×H)) was prepared by placing an acrylic support on an acid-cleaned cover slip, with the walls formed by double-sided tape, An NE-1000 syringe pump (New Era Pump Systems Inc., Wantagh, N.Y.) was used to control the buffer.
Thereafter, 40 μg/mL biotinylated bovine serum albumin (BSA) was injected and incubated at room temperature for 10 min, after which a dilution of 20 μg/mL Neutravidin in T50 solution (10 mM Tris, […], pH 8.0) was injected to the flow chamber and incubated at room temperature for 10 min.
Then, 1 μM of λ DNA overhang oligo (5′-p-[…]-Triethyleneglycol-biotin-3′) was loaded into the flow chamber and maintained at room temperature for 10 minutes. λ DNA, 200 U of T4 DNA ligase, and reaction buffer were added and incubated at room temperature for 30 minutes.
Stained DNA molecules were visualized under a continuous flow of 1×TE (100 μl/minute).

[1] = system: polytene chromosomes from the Drosophila melanogaster salivary gland; settings: 2.5 μM in 4% β-ME; tangled and spread polytene chromosomes; FIG. 5a
Source text: For comparison with DAPI, which is conventionally used to visualize polytene chromosomes on a fluorescence microscope, the polytene chromosomes from the Drosophila melanogaster salivary gland were stained with the compound.
In brief, dissected salivary glands from third larvae of Drosophila melanogaster were fixed with a solution containing a 1:2:3 ratio of propionic acid, deionized water, and acetic acid on a positively charged coverslip. Then, the cells were located between a slide glass and the coverslip and then the individual cells were gently spread. After moving the coverslip back and forth on the slide glass, the spread cells were squashed for up to 15 minutes. Then, the slide glass and coverslip were slightly dipped into liquid nitrogen. Just after no more bubbles were generated, the cover slip was removed from the slide glass.

Source text for λ DNA genome: Python Program • ImageCompare.py: a library of functions, • seq2map.py: to convert a FASTA file into a A/T frequency in silico map wherein a selected sequence is represented in white for high frequency regions and in black for low frequency regions. • insilicoMapFolder.py: to scan and compare in silico image files and DNA images obtained through experiments with respect to all images in the folder, to search positions of sites having the highest cross-correlation coefficient, to convert the values, and to store the values in new record files. • sortView.py: to read record files obtained with the insilicoMapFolder.py, to compare signals, to search cross-correlation coefficients, and to visualize image comparison in a new window. • randomtiff.py: to generate random intensity tiff images
Cross-correlation (cc) coefficient values calculated by comparing the alignment of 20 molecular images of above three kinds of binding sequences (W, W4 and W9) with the genome. The control cross-correlation coefficient (hereinafter referred to as cc) was obtained by comparing the 100 computer-generated random sequences with the in silico images (***P<0.0001 for random-sequences paired t-test).

| Compound | staining / visualization of λ DNA molecules (λ DNA) | cross-correlation coefficient (cc) of 20 molecular images aligned with λ DNA genome (λ DNA genome; W, W4, W9 maps, Python program, FIG. 3b) | agreement of measured fluorescence intensity with in silico binding sequence profiles (W, W4, W9) (λ DNA genome; λ genome, FIG. 3a) | fluorescent λ DNA image quality compared with DAPI (λ DNA; λ DNA images, FIG. 5b) | staining of polytene chromosomal DNA [1] |
| --- | --- | --- | --- | --- | --- |
| CN(C)CCCNC(=O)c1cc(NC(=O)c2cc(NC(=O)c3cc(NC(=O)c4cc(NC(=O)CCNC(=O)CCNC(=O)c5ccc(C(=O)[O-])c(-c6c7ccc(=[N+](C)C)cc-7oc7cc(N(C)C)ccc67)c5)cn4C)cn3C)cn2C)cn1C [Comparative Example 1, (5-carboxytetramethylrhodamine)-(β-alanine)2-(N-methylpyrrole)4-(3-(dimethylamino)propylamine), reference compound] | stained only in part AT-rich regions and bound undesired regions |  |  |  |  |
| CN(C)CCCNC(=O)c1cc(NC(=O)c2cc(NC(=O)c3cc(NC(=O)c4cc(NC(=O)CCNC(=O)c5cc(NC(=O)c6cc(NC(=O)c7cc(NC(=O)c8cc(NC(=O)CCNC(=O)CCNC(=O)c9ccc(-c%10c%11ccc(=[N+](C)C)cc-%11oc%11cc(N(C)C)ccc%10%11)c(C(=O)[O-])c9)cn8C)cn7C)cn6C)cn5C)cn4C)cn3C)cn2C)cn1C [Preparation Example, (5-carboxytetramethylrhodamine)-(β-alanine)2-(N-methylpyrrole)4-(β-alanine)-(N-methylpyrrole)4-(3-(dimethylamino)propylamine)] | visualized λ DNA molecules with sequence specificity as well as enhancing the intensity of the molecules | highest cc value for simple A/T frequency | agrees better with simple A/T frequency than W4 and W9 | exhibits a clear backbone compared with DAPI-stained DNA | clearly demonstrate band and interband patterns |
| (5-carboxytetramethylrhodamine)-(β-alanine)2-(N-methylpyrrole)4-(5-carboxytetramethylrhodamine) [Comparative Example 2, reference compound] | did not bind double-stranded DNA at all |  |  |  |  |
